Data: publication PMC6736568, “Discovery of Novel Anti-cryptosporidial Activities From Natural Products by in vitro High-Throughput Phenotypic Screening” (Frontiers in Microbiology, 2019)
Where a name gives a salt, the structure may show the parent alone. Read-outs that look alike come from different tables or passages of the source.

Assays:
Cryptosporidium parvum = assay: qRT-PCR assay of the growth of C. parvum in vitro in HCT-8 host cells (primary and secondary screening, EC50); format: cell-based; details: Cryptosporidium parvum; for EC50: growth of C. parvum in vitro, HCT-8 host cells, 44 h infection
HCT-8 cells = assay: In vitro cytotoxicity MTS assay on host cells; format: cell-based, human; details: 41 h
Method: The plates were measured for absorbance at 490 nm in 15 min intervals in a SmartReader 96 microplate reader (Accuris, Edison, NJ, United States). Cytotoxicity of a compound was quantified by calculating the half maximal toxic concentration on host cells (TC50). An in vitro safety interval (SI) was calculated by determining the ratio between TC50 and EC50 values (i.e., SI = TC50/EC50).

[1] = HCT-8, primary screening at 10 uM, read-out: Inhibition (%)
[2] = HCT-8, secondary screening at 3.3 uM, read-out: % Inhibition (3.3 uM)
[3] = primary screening at 10 uM, treated vs control

Row | SMILES | inhibition at 10 µM (Cryptosporidium parvum; [1]) | Hs18S ΔCT (HCT-8 host cells (Hs18S); human, 41 h, 10 μM) | cytotoxicity at 41 h, 10 µM (in vitro; human) | other results
1 | COc1ccc(C(=O)c2ccc(O)cc2)c(O)c1O [2,3,4′-Trihydroxy-4-methoxybenzophenone] | 83.2% | 0.10 | 6.4% | inhibition at 3.3 µM (Cryptosporidium parvum; [2]): 59%; EC50 (Cryptosporidium parvum): 3690 nM; TC50 (HCT-8 cells; HCT-8 cells, MTS): >100 µM
2 | COC(=O)C[C@H]1C(C)(C)[C@@H](O)[C@@H]2CC3=C4C=C(OC)O[C@@H](c5ccoc5)[C@]4(C)CCC3[C@@]1(C)C2=O (stereo partly drawn) [3-Deoxo-3beta-hydroxy-mexicanolide 16-enol ether] | 90% | -0.49 | -40.1% | inhibition at 3.3 µM (Cryptosporidium parvum; [2]): 71%; EC50 (Cryptosporidium parvum): 3940 nM; TC50 (HCT-8 cells; HCT-8 cells, MTS): >100 µM
3 | O=c1cc(-c2ccccc2)oc2cc(O)c(O)c(O)c12 [Baicalein] | 81.3% | 0.10 | 6.7% | inhibition at 3.3 µM (Cryptosporidium parvum; [2]): 66%; EC50 (Cryptosporidium parvum): 981 nM; TC50 (HCT-8 cells; human): >100 µM
4 | CC1(C)C(=O)C=C[C@@]2(C)C1=C(O)C(=O)[C@]1(C)[C@@H]2CC[C@@]2(C)[C@H](c3ccoc3)C[C@H]3O[C@]321 [Cedrelone] | 99.5% | 1.38 | 61.7% | EC50 (Cryptosporidium parvum): 267 nM; TC50 (HCT-8 cells; human): 3.59 µM
5 | CC(C)c1c(O)ccc2c1CC[C@H]1C(C)(C)CCC[C@]21C [TOTAROL] | -9.45% | -0.36 | -28.4% | –
6 | CC1=C(/C=C/C(C)=C/C=C/C(C)=C/C(=O)O)C(C)(C)CCC1 [TRETINOIN] | 7.49% | -0.28 | -21.5% | –
7 | CC(=O)Oc1ccc(/C=C/c2cc(OC(C)=O)cc(OC(C)=O)c2)cc1 [TRIACETYLRESVERATROL] | -64.8% | – | – | Hs18S ΔCT (HCT-8 host cells (Hs18S); [3]): 0.19; cytotoxicity at 10 µM (in vitro): 12.4%
8 | C[n+]1cccc(C(=O)[O-])c1 [TRIGONELLINE] | -29.9% | 0.03 | 2.2% | –
9 | CC(C)c1ccc2c(c1O)CC[C@H]1C3=C(CC[C@]21C)C(=O)OC3 [TRIPTOPHENOLIDE] | -24.5% | -0.29 | -22.1% | –
10 | NCCc1c[nH]c2ccccc12 [TRYPTAMINE] | 95.5% | – | – | inhibition at 3.3 µM (Cryptosporidium parvum; [2]): 12%; Hs18S ΔCT (HCT-8 host cells (Hs18S); [3]): -0.43; cytotoxicity at 10 µM (in vitro): -34.7%
11 | N[C@@H](Cc1c[nH]c2ccccc12)C(=O)O [TRYPTOPHAN] | – | -0.75 | -68.2% | inhibition at 10 µM (Cryptosporidium parvum; HCT-8): 85.5%; inhibition at 3.3 µM (Cryptosporidium parvum; HCT-8, read-out: % Inhibition (3.3 uM)): 17%
12 | NCCc1ccc(O)cc1 [TYRAMINE] | -27.4% | -0.27 | – | cytotoxicity at 10 µM (in vitro): -20.9%
13 | O=c1ccc2ccc(O)cc2o1 [UMBELLIFERONE] | -15.7% | – | – | Hs18S ΔCT (HCT-8 host cells (Hs18S)): -0.92; cytotoxicity at 10 µM (in vitro): -88.9%
14 | O=c1cc[nH]c(=O)[nH]1 [URACIL] | 2.08% | – | -21.4% | Hs18S ΔCT (HCT-8 host cells (Hs18S); [3]): -0.28
15 | O=c1ccn([C@@H]2O[C@H](CO)[C@@H](O)[C@H]2O)c(=O)[nH]1 [URIDINE] | 44.8% | 0.02 | 1.4% | –
16 | COc1ccc(C(=O)CC(=O)O)c2c1C=CC(C)(C)O2 [URSINOIC ACID] | 14.2% | -0.46 | -37.5% | –
17 | C[C@H](CCC(=O)O)[C@H]1CC[C@H]2[C@@H]3CC[C@@H]4CCCC[C@]4(C)[C@H]3CC[C@]12C [URSOCHOLANIC ACID] | 59.3% | – | – | Hs18S ΔCT (HCT-8 host cells (Hs18S); [3]): -0.10; cytotoxicity at 41 h, 10 µM (in vitro): -6.9%
18 | C[C@H](CCC(=O)O)[C@H]1CC[C@H]2[C@@H]3[C@@H](O)C[C@@H]4C[C@H](O)CC[C@]4(C)[C@H]3CC[C@]12C [URSODIOL] | -41.7% | -0.15 | -10.9% | –
19 | CC(=O)c1c(O)c(C)c(O)c2c1OC1=CC(=O)C(C(C)=O)C(=O)C12C (stereo not drawn) [USNIC ACID] | 18.8% | – | – | Hs18S ΔCT (HCT-8 host cells (Hs18S); [3]): -0.31; cytotoxicity at 10 µM (in vitro): -23.9%
20 | CCC(C)C(=O)O[C@@H]1C[C@@]2(C)[C@H](c3ccoc3)OC(=O)CC23OC2(C)O[C@]14[C@]1(C)[C@@H](CC(=O)OC)C5(C)CC1(O)[C@](O)(C5OC(=O)C1(C)OC1C)[C@@H](OC(C)=O)[C@]34O2 (stereo partly drawn) [UTILIN] | 36.8% | 0.06 | 4.2% | –
21 | COc1ccc(C(=O)O)cc1OC [VERATRIC ACID] | -10.7% | – | – | Hs18S ΔCT (HCT-8 host cells (Hs18S); [3]): -0.09; cytotoxicity at 10 µM (in vitro): -6.7%
22 | CC[C@]1(O)C[C@@H]2CN(CCc3c([nH]c4ccccc34)[C@@](C(=O)OC)(c3cc4c(cc3OC)N(C)[C@H]3[C@@](O)(C(=O)OC)[C@H](OC(C)=O)[C@]5(CC)C=CCN6CC[C@]43[C@@H]65)C2)C1 [VINBLASTINE SULFATE] | 71.7% | 0.81 | 43% | inhibition at 3.3 µM (Cryptosporidium parvum; [2]): 67%

Row | SMILES | inhibition at 10 µM (Cryptosporidium parvum; [1]) | Hs18S ΔCT (HCT-8 host cells (Hs18S); human, 41 h, 10 μM) | cytotoxicity at 41 h, 10 µM (in vitro; human) | other results
23 | CC[C@]12CCCN3CCc4c(n(c5ccccc45)[C@@](O)(C(=O)OC)C1)[C@@H]32 [VINCAMINE] | -20.8% | 0.12 | 8.2% | –
24 | COc1cc(C/C=C/c2ccccc2)c(OC)cc1O [VIOLASTYRENE] | -23.6% | -0.30 | -23.3% | –
25 | COc1c2ccoc2cc2oc(C)cc(=O)c12 [VISNAGIN] | 15.1% | -0.27 | -20.7% | –
26 | COC(=O)/C(=C1/OC(=O)C(c2ccccc2)=C1O)c1ccccc1 [VULPINIC ACID] | -77.9% | 0.64 | 36% | –
27 | O=c1c2ccccc2oc2ccccc12 [XANTHONE] | 0.45% | 0.13 | 8.9% | –
28 | Nc1nc(=O)c2[nH]c(=O)cnc2[nH]1 [XANTHOPTERIN] | 22.7% | 0.47 | 27.9% | –
29 | COc1cc(O)c(C(C)=O)c(OC)c1 [XANTHOXYLIN] | -20.7% | 0.08 | 5.4% | –
30 | CC1(C)C=Cc2cc3ccc(=O)oc3cc2O1 [XANTHYLETIN] | 1.74% | – | – | Hs18S ΔCT (HCT-8 host cells (Hs18S); [3]): 0.12; cytotoxicity at 10 µM (in vitro): 8.1%
31 | COC(=O)CC1C(C)(C)C(OC(C)=O)[C@@H]2[C@@H](OC(C)=O)[C@]34O[C@@]2(O)[C@]1(C)C3CC[C@]1(C)C4=CC(=O)O[C@H]1c1ccoc1 (stereo partly drawn) [XYLOCARPUS A] | -11.9% | -0.48 | -39.2% | –
32 | O=C(O)c1cc(O)c2cccc(O)c2n1 [X[…]] | – | – | – | inhibition at 10 µM (Cryptosporidium parvum; HCT-8): 20.3%; Hs18S ΔCT (HCT-8 host cells (Hs18S); [3]): -0.32; cytotoxicity at 10 µM (in vitro): -24.4%
33 | COC(=O)[C@@H]1[C@H]2C[C@H]3c4[nH]c5ccccc5c4CCN3C[C@@H]2CC[C@@H]1O [YOHIMBINE HYDROCHLORIDE] | 5.49% | -0.45 | -36.5% | –
34 | COC(=O)[C@@H]1C[C@H](OC(C)=O)C(=O)[C@H]2[C@@]1(C)CC[C@H]1C(=O)O[C@H](c3ccoc3)C[C@]21C [[…]] | 16.7% | – | – | Hs18S ΔCT (HCT-8 host cells (Hs18S); [3]): 0.53; cytotoxicity at 10 µM (in vitro): 30.5%
35 | C[N+]12CC[C@@]34c5ccccc5N5C(=O)C[C@@H]6OCC=C(C1)[C@H](C[C@@H]32)[C@@H]6[C@H]54 (stereo partly drawn) [[…]] | -6.9% | – | – | Hs18S ΔCT (HCT-8 host cells (Hs18S); [3]): 0.58; cytotoxicity at 10 µM (in vitro): 33.3%
36 | Cc1c(C)c2c(c(C)c1O)CCC(C)(CCCC(C)CCCC(C)CCCC(C)C)O2 (stereo not drawn) [alpha-TOCHOPHEROL] | -14.7% | – | – | Hs18S ΔCT (HCT-8 host cells (Hs18S); [3]): 0.21; cytotoxicity at 10 µM (in vitro): 13.8%
37 | CC(=O)Oc1c(C)c(C)c2c(c1C)CCC(C)(CCCC(C)CCCC(C)CCCC(C)C)O2 (stereo not drawn) [alpha-TOCHOPHERYL ACETATE] | -13.6% | -0.21 | -15.8% | –
38 | CC(=O)O[C@H]1CC[C@]2(C)[C@H]3CC=C4[C@@H]5CC(C)(C)CC[C@]5(C)CC[C@@]4(C)[C@]3(C)CC[C@H]2C1(C)C [beta-AMYRIN ACETATE] | 11.3% | 0.01 | 0.5% | –
39 | CC1(C)CC[C@]2(C)CC[C@]3(C)C(=CC[C@@H]4[C@@]5(C)CC[C@H](O)C(C)(C)[C@@H]5CC[C@]43C)[C@@H]2C1 [beta-AMYRIN] | -38.2% | – | – | Hs18S ΔCT (HCT-8 host cells (Hs18S); [3]): -0.12; cytotoxicity at 10 µM (in vitro): -8.3%
40 | CC1=C(/C=C/C(C)=C/C=C/C(C)=C/C=C/C=C(C)/C=C/C=C(C)/C=C/C2=C(C)CCCC2(C)C)C(C)(C)CCC1 [beta-CAROTENE] | -34.8% | 0.04 | 2.8% | –
41 | CC12CCCC(O)(C1)C1CC(C)(C)C1CC2 (stereo not drawn) [beta-CARYOPHYLLENE ALCOHOL] | 24.2% | 0.03 | 1.9% | –
42 | CC[C@H](CC[C@@H](C)[C@H]1CC[C@H]2[C@@H]3CC=C4C[C@@H](O)CC[C@]4(C)[C@H]3CC[C@]12C)C(C)C [beta-SITOSTEROL] | 91.7% | – | – | inhibition at 3.3 µM (Cryptosporidium parvum; [2]): 20%; Hs18S ΔCT (HCT-8 host cells (Hs18S); [3]): 0.43; cytotoxicity at 10 µM (in vitro): 25.8%
43 | NC(C(=O)O)C(O)C(=O)O (stereo not drawn) [d,l-threo-3-HYDROXYASPARTIC ACID] | 17.8% | 0.16 | 10.7% | –
44 | C=C(C)[C@H]1CC=C(C)CC1 [d-LIMONENE] | -6.54% | -0.21 | -15.7% | –
